Assay: water solubility of the compound of Formula 1
Assay type: physicochemical
Protocol: However, the compound has a very low water solubility (0.02 mg/ml, pH 6.8), which increases (0.7 mg/ml, pH 3.0) under acid conditions, but not enough to have a significant effect. It is water insoluble and has a very low solubility, in particular, under neutral or higher pH environments, so it has a much difficulty in being formulated into preparations through its dissolution and stabilization in aqueous solutions. Also, its degradation products are increased under acid conditions, thus leading to poor stability and causing a restriction on selection of salts. Furthermore, in case of using solubilizers such as surfactants, etc., to improve the solubility, it requires an excessive amount of excipients, thus causing difficulty.

solubility (aqueous buffer, pH 3.0, acid conditions): 700 µg/mL | solubility (pH 6.8, aqueous buffer): 20 µg/mL
SMILES: Cc1nc2c(O[C@H]3CCOc4cc(F)cc(F)c43)cc(C(=O)N(C)C)cc2[nH]1 [Formula 1, (S)-4-((5,7-difluorochroman-4-yl)oxy)-N,N-2-trimethyl-1H-benzo[d]imidazole-6-carboxamide]
